# According to patent publication US20080038728A1, “Quadruple Transformed Cell Line Useful for the Identification of Transport Inhibitors” (priority 2004, published 2008):
# Where two headings read alike, the source gives them in different places.
# Legend:
# [1] = tested on: OATP1B1, OATP1B3, and OATP2B1; assay: Uptake (intracellular accumulation) kinetics in ABCC2/OATP1B1/1B3/2B1 quadruple-transfected MDCKII cells; format: in vitro ADME, human; details: for Km: human
# Description: (§1) (a) MDCKII cells were grown on ThinCerts (24-mm diameter, pore size 0.4 μm, pore density 1×10^8 per cm^2) and induced with butyrate as mentioned above. The cells were washed in prewarmed (37° C.) transport buffer (142 mM NaCl, 5 mM KCl, 1 mM KH2PO4, 1.2 mM MgSO4, 1.5 mM CaCl2, 5 mM glucose, and 12.5 mM HEPES, pH 7.3). The ^3H-labeled substrate was dissolved in transport buffer and added either to the apical or to the basolateral compartment at the concentration indicated. After incubation at 37° C., the radioactivity in the opposite compartment was measured by sampling aliquots from the apical or basolateral compartment. Cells were washed 2 times with ice-cold transport buffer containing 0.5% bovine serum albumin and 3 times in ice-cold transport buffer. Intracellular accumulation of radioactivity was calculated by lyzing the cells with 0.2% sodium dodecyl sulfate (SDS) and measuring the radioactivity in the lysate.
# OATP1B1 = target: T1, OATP1B1 (Homo sapiens, UniProt Q9Y6L6); details: BSP uptake, background section; cited from earlier work
# T1 sequence (Q9Y6L6 1-691): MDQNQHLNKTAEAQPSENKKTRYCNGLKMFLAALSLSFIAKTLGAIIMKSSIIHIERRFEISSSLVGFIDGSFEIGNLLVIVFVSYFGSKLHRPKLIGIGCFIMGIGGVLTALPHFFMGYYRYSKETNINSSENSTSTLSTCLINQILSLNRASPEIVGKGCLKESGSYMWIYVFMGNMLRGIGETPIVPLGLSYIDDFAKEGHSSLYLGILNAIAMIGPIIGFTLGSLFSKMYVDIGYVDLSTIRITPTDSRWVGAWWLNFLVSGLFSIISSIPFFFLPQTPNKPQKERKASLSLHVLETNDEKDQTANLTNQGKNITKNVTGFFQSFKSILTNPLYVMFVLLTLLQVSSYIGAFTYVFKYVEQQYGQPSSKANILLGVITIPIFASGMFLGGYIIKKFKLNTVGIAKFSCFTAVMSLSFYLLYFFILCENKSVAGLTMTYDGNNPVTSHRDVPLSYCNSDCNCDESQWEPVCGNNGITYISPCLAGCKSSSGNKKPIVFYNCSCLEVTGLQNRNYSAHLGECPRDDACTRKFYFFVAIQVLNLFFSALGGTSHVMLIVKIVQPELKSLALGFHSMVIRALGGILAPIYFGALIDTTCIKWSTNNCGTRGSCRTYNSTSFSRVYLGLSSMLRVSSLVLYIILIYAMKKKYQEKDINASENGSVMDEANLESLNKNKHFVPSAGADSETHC
# OATP1B3 = target: T2, OATP1B3 (Homo sapiens, UniProt Q9NPD5); assay: Uptake (intracellular accumulation) kinetics in ABCC2/OATP1B3 double-transfected MDCKII cells; format: in vitro ADME; set-up: expressed in transfected cells; host or cells: MDCKII (canine kidney), co-expressing ABCC2
# T2 sequence (Q9NPD5 1-702): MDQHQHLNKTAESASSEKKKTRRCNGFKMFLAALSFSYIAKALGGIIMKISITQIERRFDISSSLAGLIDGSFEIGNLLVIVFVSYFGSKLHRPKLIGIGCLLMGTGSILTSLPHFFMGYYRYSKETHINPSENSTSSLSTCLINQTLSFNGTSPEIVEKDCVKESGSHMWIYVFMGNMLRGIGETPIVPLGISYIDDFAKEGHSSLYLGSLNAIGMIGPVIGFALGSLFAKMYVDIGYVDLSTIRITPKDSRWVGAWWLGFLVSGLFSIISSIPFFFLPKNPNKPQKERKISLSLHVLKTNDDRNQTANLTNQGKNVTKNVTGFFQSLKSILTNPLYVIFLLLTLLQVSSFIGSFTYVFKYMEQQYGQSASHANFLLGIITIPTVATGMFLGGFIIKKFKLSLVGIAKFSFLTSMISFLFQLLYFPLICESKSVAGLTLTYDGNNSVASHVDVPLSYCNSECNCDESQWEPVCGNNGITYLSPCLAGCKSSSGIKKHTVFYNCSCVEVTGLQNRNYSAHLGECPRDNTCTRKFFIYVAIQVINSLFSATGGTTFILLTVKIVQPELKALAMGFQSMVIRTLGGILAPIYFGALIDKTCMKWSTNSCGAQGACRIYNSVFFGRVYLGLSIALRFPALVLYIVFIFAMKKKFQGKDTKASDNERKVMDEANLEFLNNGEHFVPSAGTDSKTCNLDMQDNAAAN
# Description: as §1
# OATP2B1 = target: T3, OATP2B1 (Homo sapiens, UniProt O94956); details: cRNA-injected Xenopus laevis oocytes; cited from earlier work
# T3 sequence (O94956 1-709): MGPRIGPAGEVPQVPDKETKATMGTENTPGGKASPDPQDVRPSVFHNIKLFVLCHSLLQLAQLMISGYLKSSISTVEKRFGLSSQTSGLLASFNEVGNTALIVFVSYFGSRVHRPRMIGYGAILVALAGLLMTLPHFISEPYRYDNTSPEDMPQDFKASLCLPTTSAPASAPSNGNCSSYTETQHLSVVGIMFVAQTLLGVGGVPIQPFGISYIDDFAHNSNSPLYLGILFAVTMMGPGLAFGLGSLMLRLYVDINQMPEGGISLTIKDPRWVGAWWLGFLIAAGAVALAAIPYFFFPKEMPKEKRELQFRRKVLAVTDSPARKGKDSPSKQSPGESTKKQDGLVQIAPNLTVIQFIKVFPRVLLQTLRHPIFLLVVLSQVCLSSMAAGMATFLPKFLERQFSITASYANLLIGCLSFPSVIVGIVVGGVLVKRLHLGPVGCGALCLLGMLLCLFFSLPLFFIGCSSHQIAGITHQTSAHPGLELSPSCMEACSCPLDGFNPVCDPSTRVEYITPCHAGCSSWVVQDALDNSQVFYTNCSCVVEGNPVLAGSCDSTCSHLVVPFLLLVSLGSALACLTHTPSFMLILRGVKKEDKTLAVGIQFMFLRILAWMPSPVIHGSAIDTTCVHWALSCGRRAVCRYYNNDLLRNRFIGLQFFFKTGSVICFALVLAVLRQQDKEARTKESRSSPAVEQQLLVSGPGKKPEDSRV
# ABCC2 = ABCC2 (Homo sapiens, UniProt Q92887); set-up: expressed in transfected cells; host or cells: MDCKII-ABCC2 single-transfected cells (membrane vesicles); details: BSP: Cui et al., 2001; CCK-8: Letschert et al., 2005; cited from earlier work
# ABCC2, sequence (Q92887 whole entry): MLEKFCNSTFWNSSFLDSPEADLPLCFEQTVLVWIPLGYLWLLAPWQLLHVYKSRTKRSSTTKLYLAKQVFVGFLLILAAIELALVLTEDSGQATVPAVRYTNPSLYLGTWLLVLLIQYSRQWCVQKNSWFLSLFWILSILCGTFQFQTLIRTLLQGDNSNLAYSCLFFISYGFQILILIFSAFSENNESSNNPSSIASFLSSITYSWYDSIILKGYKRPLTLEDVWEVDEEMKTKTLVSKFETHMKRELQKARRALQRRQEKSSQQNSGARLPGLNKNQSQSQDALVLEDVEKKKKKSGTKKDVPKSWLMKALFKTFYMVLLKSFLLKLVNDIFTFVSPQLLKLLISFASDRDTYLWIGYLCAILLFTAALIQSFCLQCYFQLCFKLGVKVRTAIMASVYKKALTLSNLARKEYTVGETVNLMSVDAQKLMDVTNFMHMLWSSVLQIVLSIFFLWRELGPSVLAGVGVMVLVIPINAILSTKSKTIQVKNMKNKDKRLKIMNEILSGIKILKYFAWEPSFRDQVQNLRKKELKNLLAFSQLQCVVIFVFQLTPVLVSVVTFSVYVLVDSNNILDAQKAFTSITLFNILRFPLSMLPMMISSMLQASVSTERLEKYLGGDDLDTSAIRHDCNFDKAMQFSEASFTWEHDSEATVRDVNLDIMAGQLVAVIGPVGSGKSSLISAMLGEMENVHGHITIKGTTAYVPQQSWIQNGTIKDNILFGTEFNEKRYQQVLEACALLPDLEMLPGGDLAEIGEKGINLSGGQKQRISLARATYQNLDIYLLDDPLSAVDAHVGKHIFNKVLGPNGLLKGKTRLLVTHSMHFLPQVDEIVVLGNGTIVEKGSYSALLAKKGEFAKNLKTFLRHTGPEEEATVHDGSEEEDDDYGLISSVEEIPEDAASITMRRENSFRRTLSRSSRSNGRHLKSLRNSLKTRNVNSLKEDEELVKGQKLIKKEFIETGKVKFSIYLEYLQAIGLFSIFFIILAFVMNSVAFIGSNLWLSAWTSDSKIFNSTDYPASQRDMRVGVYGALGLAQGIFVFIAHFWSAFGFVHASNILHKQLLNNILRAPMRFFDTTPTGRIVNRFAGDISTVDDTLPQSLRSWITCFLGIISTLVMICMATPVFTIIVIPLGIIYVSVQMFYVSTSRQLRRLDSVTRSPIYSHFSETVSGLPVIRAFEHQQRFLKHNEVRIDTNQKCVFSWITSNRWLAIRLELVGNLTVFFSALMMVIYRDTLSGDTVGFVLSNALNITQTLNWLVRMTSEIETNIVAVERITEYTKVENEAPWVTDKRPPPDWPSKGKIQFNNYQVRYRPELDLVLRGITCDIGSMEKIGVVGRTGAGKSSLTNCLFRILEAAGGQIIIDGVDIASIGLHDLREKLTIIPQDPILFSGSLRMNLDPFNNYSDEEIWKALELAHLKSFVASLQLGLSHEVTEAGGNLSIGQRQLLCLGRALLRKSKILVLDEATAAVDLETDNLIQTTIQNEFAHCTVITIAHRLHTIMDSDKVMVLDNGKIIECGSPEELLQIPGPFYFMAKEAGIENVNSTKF
structure (smiles),measurement,setting,value
O=C1OC(c2ccc(O)c(S(=O)(=O)O)c2)(c2ccc(O)c(S(=O)(=O)O)c2)c2c(Br)c(Br)c(Br)c(Br)c21 [Bromosulfophthalein],maximal velocity,[1]; ABCC2/OATP1B1/1B3/2B1 quadruple-transfectants,197.8 pmol×mg protein×min^−1
same,Vmax,"[1]; cell line ABCC2-OATP1B1/1B3/2B1 (quadruple-transfectant), intracellular accumulation of 3H-labeled substrate",197.8 ± 3.0 pmol · mg protein^−1 · min^−1
same,Km,"[1]; pH 7.3, cell line ABCC2-OATP1B1/1B3/2B1 (quadruple-transfectant), intracellular accumulation of 3H-labeled substrate, read-out: Km",4.8 µM
same,Km,"[1]; pH 7.3, summary bound for the OATPs, referring to Table 1, read-out: Km values for the OATPs",< 5 µM
same,Km,OATP1B1,0.14 µM
same,Vmax,"OATP1B3; cell line ABCC2-OATP1B3, intracellular accumulation of 3H-labeled substrate",82.7 ± 4.0 pmol · mg protein^−1 · min^−1
same,Km at 5 min,"OATP1B3; human, pH 7.3",2.2 µM
same,Km,OATP2B1,0.7 µM
same,Km,ABCC2,12 µM
